# In US11912688B2, “1, 3-dioxolane derivative” (TOHOKU UNIVERSITY, priority 2019, dated 2024):
# Tests used:
# iNOS transgenic mice [1] = experiment: Observation of mouse kidney tissues by transmission electron microscope (iNOS mice); assay type: in vivo; details: iNOS mice of Test Example 3, transmission electron microscope; FIG. 16C
# Protocol: The kidneys of model mice in the administered group and the non-administered group, and a mouse in the wild type group in Test Example 3 were placed in a prefixing solution containing 2% PFA (FUJIFILM Wako Pure Chemical Corporation; 163-20145)/2.5% glutaraldehyde (TAAB Laboratories Equipment Ltd.; G017/1)/0.1 M cacodylate buffer solution (FUJIFILM Wako Pure Chemical Corporation; 036-18175) and treated at room temperature for 2 hours. The prefixed kidneys were washed with 0.1 M cacodylate buffer solution (containing 8% sucrose (FUJIFILM Wako Pure Chemical Corporation: 196-00015)) on ice for 15 minutes×4 times and treated with postfixing solution containing 1% osmium tetroxide (FUJIFILM Wako Pure Chemical Corporation; 154-01014) on ice for 90 minutes. The postfixed kidneys were washed with ultrapure water for 15 minutes×3 times, placed in aqueous 50, 60, 70, 80, 90, and 95% ethanol solutions each for 10 minutes×1 time, further in 100% ethanol for 20 minutes×3 times, and subjected to ethanol dehydration. […]
# ChREBP [2] = experiment: ChREBP target gene expression analysis in the kidney by quantitative PCR (db/db mice); assay type: in vivo, mouse; details: db/db mice of Test Example 7, quantitative PCR
# Protocol: (§1) In the mice used in Test Example 3, the expression variations of ChREBPβ and the TXNIP genes, which are target genes of ChREBP in the kidney, were analyzed by quantitative PCR in the method of the previous report (Genes to Cells 19 (2013) 52-65). The following primer set was used for the amplification of ChREBPβ.
# In the mice used in Test Example 7, ChREBP target gene expression analysis was performed by the same method as in Test Example 4. FIG. 22 and FIG. 23 show the results.
# db/db mice = experiment: Relationship between blood sugar level and amount of albumin excreted in urine (ACR), regression lines, db/db mice; assay type: in vivo, mouse; details: experimental vs control group, least squares regression, FIG. 25
# Description: As to the blood sugar levels and the amounts of albumin excreted in urine (ACR) of the experimental group and the control group (non-administered group of db/db mice) in Test Example 7, a scatter diagram was created using SPSS, which is statistical analysis software, so that the abscissa axis is the blood sugar level, and the ordinate axis is the ACR, and regression lines (linear approximation by the least squares method) were found.
# ChREBP [3] = experiment: ChREBP target gene expression analysis in the kidney by quantitative PCR (iNOS mice); assay type: in vivo, mouse; details: iNOS mice of Test Example 3, quantitative PCR
# Protocol: as §1
# A primer set used for the amplification of the TXNIP gene is as mentioned above.
# iNOS transgenic mice [4] = experiment: Test using mice developing diabetic nephropathy (iNOS transgenic mice); assay type: in vivo, mouse; details: 6 mg/kg/day oral
# Description: iNOS transgenic mice (Takamura T. et al., J Biol Chem. 1998; 273: 2493-2496; received from Emeritus Professor Hiroshi Okamoto, Tohoku University) were used as model mice. According to the literature of Takamura et al., breeding in which 4-week-old model mice (experimental group: n=8, control group: n=6) and a wild type group (n=8), which is non-transgenic mice born simultaneously with the model mice by mating iNOS transgenic mice and wild type (CD1 (ICR)) mice, were fed with high protein and high calorie diets was performed for 13 weeks. Compound 12 (D-532) was further orally administered to the experimental group in 6 mg/kg/day. As to the groups, the body weights were measured every day, and the blood sugar levels, the albumin in urine, and the creatinine in urine were measured in accordance with the usual method every 3 weeks. The groups were sacrificed after the breeding, the serum creatinine in the blood collected from the abdominal vena cava at the time of dissection was measured, and the gene expression in the kidneys collected at the time of dissection was analyzed. The kidney tissues were stained with HE and PAS and observed.
# Further, the […] tissue section images were subjected to ImageJ (http://imagej.nih.gov/ij/) and measured according to the operation manual attached to ImageJ. When each glomerulus area (each group, n=100) and an area obtained by excluding regions of no interest such as vascular lumens and nuclei from the each glomerulus area were found, and the ratio therebetween, namely the PAS-positive area ratio in glomeruli, was found, the ratio increased in the model mice, and the improvement was meanwhile confirmed in the administered group.
structure (smiles),measurement,setting,value
"c1ccc(COC[C@H]2CO[C@@](Cn3nnc4ccccc43)(c3ccccc3)O2)cc1 [Example D-532, 1-(((2S,4S)-4-((benzyloxy)methyl)-2-phenyl-1,3-dioxolan-2-yl)methyl)-1H-benzo[d][1,2,3]triazole]",structure of foot processes in kidney tissue,iNOS transgenic mice [1],suppressed the structural change of the foot processes
same,expression of ChREBPβ gene in the kidney,ChREBP [2]; FIG. 22,Decrease in the expression
same,expression of TXNIP gene in the kidney,ChREBP [2]; FIG. 23,Decrease in the expression
same,effect on ACR relative to blood sugar level (gradient of the regression line),db/db mice,direct effect on the kidney
same,expression of ChREBPβ gene in the kidney,ChREBP [3]; FIG. 10,decrease in expression
same,expression of TXNIP gene in the kidney,ChREBP [3]; FIG. 11,decrease in expression
same,blood sugar level,"iNOS transgenic mice [4]; 13 weeks, vs control group, FIG. 4",significantly low value as compared with the control group
same,amount of albumin excreted in urine,"iNOS transgenic mice [4]; 13 weeks, vs control group, FIG. 5",significant low value
same,increase in blood creatinine,"iNOS transgenic mice [4]; at dissection, FIG. 6",significantly improved
